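Briefly, cells in 96-well plates were exposed to five compound concentrations for 48 h, and endpoints were estimated by linear interpolation. Here, GI50 denotes the concentration required for 50% inhibition of growth.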 Activity calls are given as the source filed them. Rule as the data show it: active = GI50 up to about 1.1 µM and inactive = higher. Where only a bound is given, the exact number is not on record here.

Test systems include COLO 205; K562; CCRF-CEM; SK-OV-3; UACC-62; SF-539; LOX IMVI; OVCAR-5; 786-0; Malme-3M; SW-620; OVCAR-4; SNB-75; SF-268; RXF 393; HL-60; MOLT-4; SR.
What all share (assay): inhibition of tumour cell growth, NCI panel, 48 h

For `c1ccc(C(c2ccccc2)c2cccnc2)cc1`, the GI50 with COLO 205 is > 100 µM (inactive); in the assay on K562, 38.3 µM (inactive); with CCRF-CEM it was > 100 µM (inactive); with SK-OV-3, > 100 µM (inactive); with UACC-62 it was > 100 µM (inactive); in the assay with SF-539, > 100 µM (inactive). The GI50 with LOX IMVI, with OVCAR-5, with 786-0, in the assay with Malme-3M, in the assay with SW-620 and with OVCAR-4 was > 100 µM (inactive) each time. For the same compound, the GI50 is 69 µM (inactive) in the assay on SNB-75 and > 100 µM (inactive) in the assay with SF-268.

Regarding `CCOC(=O)C1N(S(=O)(=O)c2ccc(C)cc2)CCC12C(c1ccc(OC)c(OC)c1)=Nc1ccccc12` (stereo not given), the GI50 is 49.3 µM (inactive) with RXF 393; > 100 µM (inactive) in the assay with COLO 205; > 100 µM (inactive) with K562; > 100 µM (inactive) with CCRF-CEM; > 100 µM (inactive) in the assay with SK-OV-3; > 100 µM (inactive) with UACC-62. The GI50 with SF-539, in the assay on LOX IMVI, in the assay with OVCAR-5, in the assay on 786-0, in the assay with HL-60 and in the assay with Malme-3M was > 100 µM (inactive) in each case. For the same compound, the GI50 with SW-620 was > 100 µM (inactive); in the assay on OVCAR-4, > 100 µM (inactive); in the assay with SNB-75, 35.5 µM (inactive); in the assay on SF-268, 47.8 µM (inactive).

For `N#Cc1c2nc3ccccc3nc2n2ccc3ccccc3c12`, the GI50 with COLO 205, in the assay with K562, with CCRF-CEM, in the assay on SK-OV-3, in the assay on SF-539 and in the assay with OVCAR-5 was > 100 µM (inactive) throughout. Besides, the GI50 in the assay on 786-0, with MOLT-4, in the assay on HL-60, in the assay on Malme-3M, in the assay on OVCAR-4 and in the assay on SNB-75 was > 100 µM (inactive) throughout. The GI50 in the assay on SF-268 was > 100 µM (inactive).

For `CC1(c2cccc3c2C2(O)C=CC4(CCC32)OCCO4)OCCO1` (stereo not given), the GI50 with RXF 393, in the assay with COLO 205, with K562, in the assay on CCRF-CEM, with SK-OV-3 and with UACC-62 was > 100 µM (inactive) throughout. The GI50 in the assay with SF-539, in the assay with LOX IMVI, with OVCAR-5, in the assay with 786-0, in the assay on MOLT-4 and in the assay on HL-60 was > 100 µM (inactive) each time. The GI50 with Malme-3M, with SW-620, in the assay with OVCAR-4, in the assay with SNB-75 and in the assay on SF-268 was > 100 µM (inactive) each time.

Regarding `CCN(CC)CCN(C)CC(C)(C)C(=O)/C=C/c1ccccc1`, the GI50 in the assay on COLO 205 was 13.7 µM (inactive); in the assay on K562, 0.0693 µM (active); in the assay on CCRF-CEM, 4.99 µM (inactive); in the assay on SK-OV-3, 12.6 µM (inactive); in the assay with UACC-62, 12.7 µM (inactive); with SF-539 it was 5.01 µM (inactive). For the same compound, the GI50 was 11 µM (inactive) in the assay with LOX IMVI; 14 µM (inactive) in the assay on OVCAR-5; 15.8 µM (inactive) in the assay on 786-0; 5.16 µM (inactive) with MOLT-4; 6.22 µM (inactive) in the assay with HL-60; 13.4 µM (inactive) with Malme-3M. Also, the GI50 in the assay on SW-620 is 11.5 µM (inactive); in the assay with OVCAR-4, 11.4 µM (inactive); with SNB-75 it was 4.36 µM (inactive); in the assay on SF-268, 12.6 µM (inactive); with SR, 10.5 µM (inactive).

With `CCOC(=O)C(=O)C(C#N)c1ccc(Cl)cc1` (stereo not given), the GI50 in the assay with RXF 393, in the assay with COLO 205, in the assay with K562, in the assay on SK-OV-3, in the assay on UACC-62 and in the assay on SF-539 was > 100 µM (inactive) throughout. The GI50 in the assay on LOX IMVI, with OVCAR-5, in the assay with 786-0, in the assay with MOLT-4, in the assay on HL-60 and in the assay with Malme-3M was > 100 µM (inactive) each time. The GI50 with SW-620, in the assay on OVCAR-4, in the assay with SNB-75 and in the assay on SF-268 was > 100 µM (inactive) throughout.

On to `CC(C)N(C(=O)c1cccc(C(=O)N(C(C)C)C(C)C)c1)C(C)C`, for which the GI50 in the assay on COLO 205, in the assay with K562, in the assay with CCRF-CEM, in the assay with SK-OV-3, with UACC-62 and in the assay with SF-539 was > 100 µM (inactive) each time. The GI50 in the assay on LOX IMVI, in the assay with OVCAR-5, with 786-0, in the assay with MOLT-4, in the assay on HL-60 and in the assay on Malme-3M was > 100 µM (inactive) throughout. The GI50 in the assay with SW-620 was 12.8 µM (inactive); with OVCAR-4 it was > 100 µM (inactive); with SNB-75, > 100 µM (inactive); in the assay on SF-268 it was > 100 µM (inactive); in the assay with SR, 20.1 µM (inactive).

In the case of `CCCCN(CCCC)c1c([N+](=O)[O-])c(=O)nc2ccccn12`, the GI50 is 45.5 µM (inactive) with COLO 205; 37.2 µM (inactive) in the assay on K562; 44.6 µM (inactive) in the assay with CCRF-CEM; > 100 µM (inactive) in the assay on SK-OV-3; 36.7 µM (inactive) in the assay on UACC-62; 31.4 µM (inactive) with SF-539. For the same compound, the GI50 with OVCAR-5 is 99.3 µM (inactive); in the assay with 786-0, 34 µM (inactive); in the assay on MOLT-4, 37.7 µM (inactive); in the assay on Malme-3M, > 100 µM (inactive); with SW-620, 36.2 µM (inactive); in the assay with SNB-75 it was 30.8 µM (inactive). Further, the figures for the GI50 in the assay on SF-268 and in the assay on SR were 29.3 µM (inactive) and 38.5 µM (inactive), respectively.

As for `Cc1ccc(-c2cc(-c3ccccc3)c(C#N)c(=O)n2C2OC(CO)C(O)C(O)C2O)cc1` (stereo not given), the GI50 is > 100 µM (inactive) with RXF 393; > 100 µM (inactive) in the assay on COLO 205; 86.7 µM (inactive) in the assay with K562; > 100 µM (inactive) in the assay with CCRF-CEM; > 100 µM (inactive) in the assay on SK-OV-3; > 100 µM (inactive) in the assay on UACC-62. The GI50 in the assay with SF-539 was > 100 µM (inactive); with LOX IMVI it was > 100 µM (inactive); in the assay on OVCAR-5 it was > 100 µM (inactive); in the assay with 786-0, > 100 µM (inactive); in the assay on MOLT-4, 21.1 µM (inactive); with HL-60 it was > 100 µM (inactive). In addition, the GI50 with Malme-3M, with SW-620, in the assay with OVCAR-4 and in the assay with SF-268 was > 100 µM (inactive) each time.

The values are drawn from ChEMBL document CHEMBL1201862, “PubChem BioAssay data set” (2004).
